Columns and labels:
Aurora-C = target: T1, Aurora-C (Homo sapiens, UniProt Q9UQB9); assay: Aurora-C kinase assay; type: biochemical; conditions: for IC50: 3 μM ATP, 22° C., 90 min
T1 construct: made in house; host or cells: transiently transfected HEK293 cells
T1 sequence (Q9UQB9 1-309): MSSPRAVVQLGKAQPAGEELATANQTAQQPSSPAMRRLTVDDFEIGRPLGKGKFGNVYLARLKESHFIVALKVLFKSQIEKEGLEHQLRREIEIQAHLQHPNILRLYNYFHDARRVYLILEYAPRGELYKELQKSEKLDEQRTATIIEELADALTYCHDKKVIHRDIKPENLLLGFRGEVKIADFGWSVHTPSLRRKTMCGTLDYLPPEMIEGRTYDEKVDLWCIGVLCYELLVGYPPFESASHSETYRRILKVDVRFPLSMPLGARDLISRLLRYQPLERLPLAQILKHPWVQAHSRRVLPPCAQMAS
Method: Recombinant Aurora-C protein was expressed in transiently transfected HEK293 cells and then purified. The kinase substrate used was the biotinylated peptide having the amino acid sequence biotin-FMRLRRLSTKYRT, which was purchased from Jerini AG in Berlin.
Aurora-C [5 nM in the test mixture, test volume 5 μl] was incubated in the presence of various concentrations of test substances (0 μM and 10 measurement points within the range 0.001-20 μM in duplicate) in assay buffer [25 mM HEPES pH 7.4, 0.5 mM MnCl2, 0.1 mM Na ortho-vanadate, 2.0 mM dithiothreitol, 0.05% bovine serum albumin (BSA), 0.01% Triton X-100, 3 μM adenosine trisphosphate (ATP), 0.67 nCi/μl gamma-^33P-ATP, 2.0 μM substrate peptide biotin-FMRLRRLSTKYRT, 1.0% dimethyl sulphoxide] at 22° C. for 90 min. The reaction was stopped by adding 12.5 μl of an EDTA/detection solution [16 mM EDTA, 40 mM ATP, 0.08% Triton X-100, 4 mg/ml PVT streptavidin SPA beads (from Amersham)]. After incubation for 10 minutes, the SPA beads were pelleted by centrifugation at 1000×G for 10 minutes. Measurement took place in a PerkinElmer Topcount scintillation counter. The measured data were normalized to 0% inhibition (enzyme reaction without inhibitor) and 100% inhibition (enzyme reaction in the presence of 0.1 μM staurosporine (from Sigma)). The IC50 values were determined by means of a 4-parameter fit using the company's own software.

CDK2/CycE = target: T2, CDK2/CycE (Homo sapiens, UniProt P24941); assay: CDK2/CycE kinase assay; type: biochemical; conditions: for IC50: 0.5 μM ATP, histone IIIS, 22° C., 10 min; for inhibition of CDK2 kinase (in words): summary of Tab. 1
T2 construct: GST; purchased ProQinase GmbH, Freiburg; host or cells: baculovirus-infected insect cells (Sf9)
Method: Recombinant CDK2- and CycE-GST fusion proteins, purified from baculovirus-infected insect cells (Sf9), were purchased from ProQinase GmbH, Freiburg. The histone IIIS used as kinase substrate was purchased from Sigma.
(§1) CDK2/CycE (50 ng/measurement point) was incubated in the presence of various concentrations of test substances (0 μM, and within the range 0.01-100 μM) in assay buffer [50 mM Tris/HCl pH 8.0, 10 mM MgCl2, 0.1 mM Na ortho-vanadate, 1.0 mM dithiothreitol, 0.5 μM ATP, 10 μg/measurement point histone IIIS, 0.2 μCi/measurement point ^33P-gamma-ATP, 0.05% NP40, 1.25% dimethyl sulphoxide] at 22° C. for 10 min. The reaction was stopped by adding EDTA solution (250 mM, pH 8.0, 15 μl/measurement point).
15 μl of each reaction mixture were loaded onto P30 filter strips (from Wallac), and non-incorporated ^33P-ATP was removed by washing the filter strips three times in 0.5% strength phosphoric acid for 10 min each time.
(§2) After the filter strips had been dried at 70° C. for 1 hour, the filter strips were covered with scintillator strips (MeltiLex™ A, from Wallac) and baked at 90° C. for 1 hour. The amount of incorporated ^33P (substrate phosphorylation) was determined by scintillation measurement in a gamma radiation counter (Wallac).

CDK1/CycB = target: T3, CDK1/CycB (Homo sapiens, UniProt P06493); assay: CDK1/CycB kinase assay; type: biochemical; conditions: 0.5 μM ATP, histone IIIS, 22° C., 10 min
T3 construct: GST; purchased ProQinase GmbH, Freiburg; host or cells: baculovirus-infected insect cells (Sf9)
Method: as §1, with “Recombinant CDK1- and CycB-GST fusion proteins, purified from baculovirus-infected insect cells (Sf9), were purchased from ProQinase GmbH, Freiburg. The histone IIIS used as kinase substrate can be purchased from Sigma. CDK1/CycB (200” for “CDK2/CycE (50”
as §2, with “15 μl of each reaction mixture were loaded onto P30 filter strips (from Wallac), and non-incorporated ^33P-ATP was removed by washing the filter strips three times in 0.5% strength phosphoric acid for 10 min each time. After” for “After”

KDR (VEGFR2) = target: T4, KDR (VEGFR2) (Homo sapiens, UniProt P35968); assay: KDR kinase assay; type: biochemical; conditions: 10 μM ATP, 22° C., 45 min, HTRF
T4 construct: made in house; host or cells: E. coli
Method: Recombinant KDR protein was expressed in E. coli and then purified. The kinase substrate used was the biotinylated peptide having the amino acid sequence biotin-DFGLARDMYDKEYYSVG, which was purchased from Biosynthan. KDR [test volume 5 μl] was incubated in the presence of various concentrations of test substances (0 μM, and 10 measurement points within the range 0.001-20 μM in duplicate) in assay buffer [50 mM HEPES pH 7.0, 25.0 mM MgCl2, […], 0.1 mM Na ortho-vanadate, 1.0 mM dithiothreitol, 0.001% NP40, 10 μM ATP, 0.03 μM substrate peptide […], 1.0% dimethyl sulphoxide] at 22° C. for 45 min. The reaction was stopped by adding 5 μl of an EDTA/detection solution [50 mM HEPES pH 7.5, 125 mM EDTA, 0.2% BSA, 0.1 μM streptavidin-XLent (from CisBio), 2 nM PT66-Eu (from PerkinElmer)]. The fluorescence emission at 620 nm and 665 nm after excitation with light of the wavelength 350 nm was measured in a Rubystar HTRF instrument from BMG Labsystems.
The measured data (ratio of emission 665 divided by emission 620 multiplied by 10 000) were normalized to 0% inhibition (enzyme reaction without inhibitor) and 100% inhibition (all assay components apart from enzyme). The IC50 values were determined by means of a 4-parameter fit using the company's own software.

MCF7 breast tumour cells = assay: MCF7 proliferation assay; type: cell-based, human; conditions: for IC50: Homo sapiens, MCF7, 96 h, 4 days incubation, crystal violet staining; for antiproliferative activity, MCF7 (in words): summary of Tab. 2
Method: Cultivated human MCF7 breast tumour cells (ATCC HTB-22) were plated out in a density of 5000 cells/measurement point in 200 μl of growth medium (RPMI1640, 10% foetal calf serum, 2 mU/mL insulin, 0.1 nM oestradiol) in a 96-well multititre plate. After 24 hours, the cells from a plate (zero plate) were stained with crystal violet (see below), while the medium in the other plates was replaced by fresh culture medium (200 μl) to which the test substances had been added in various concentrations (0 μM, and in the range 0.1-30 μM; the final concentration of the solvent dimethyl sulphoxide was 0.5%). The cells were incubated in the presence of the test substances for 4 days. The cell proliferation was determined by staining the cells with crystal violet: the cells were fixed by adding 20 μl/measurement point of an 11% strength glutaraldehyde solution at room temperature for 15 min. After the fixed cells had been washed three times with water, the plates were dried at room temperature. The cells were stained by adding 100 μl/measurement point of a 0.1% strength crystal violet solution (pH adjusted to pH 3 by adding acetic acid). After the stained cells had been washed three times with water, the plates were dried at room temperature. The dye was dissolved by adding 100 μl/measurement point of a 10% strength acetic acid solution, and the extinction was determined by photometry at a wavelength of 595 nm. The percentage change in cell growth was calculated by normalizing the measurements to the extinctions of the zero point plate (=0%) and the extinction of the untreated (0 μM) cells (=100%). The IC50 values were determined by means of a 4-parameter fit using the company's own software.

T3 sequence (P06493 whole entry): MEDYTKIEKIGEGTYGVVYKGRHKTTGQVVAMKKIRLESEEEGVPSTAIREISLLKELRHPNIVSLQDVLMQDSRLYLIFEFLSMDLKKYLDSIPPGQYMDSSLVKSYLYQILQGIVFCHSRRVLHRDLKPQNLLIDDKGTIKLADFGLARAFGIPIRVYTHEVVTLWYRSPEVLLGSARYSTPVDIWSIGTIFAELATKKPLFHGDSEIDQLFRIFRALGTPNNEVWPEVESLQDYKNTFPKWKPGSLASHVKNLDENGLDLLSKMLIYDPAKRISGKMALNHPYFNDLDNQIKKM
T3 sequence (P14635 whole entry partner): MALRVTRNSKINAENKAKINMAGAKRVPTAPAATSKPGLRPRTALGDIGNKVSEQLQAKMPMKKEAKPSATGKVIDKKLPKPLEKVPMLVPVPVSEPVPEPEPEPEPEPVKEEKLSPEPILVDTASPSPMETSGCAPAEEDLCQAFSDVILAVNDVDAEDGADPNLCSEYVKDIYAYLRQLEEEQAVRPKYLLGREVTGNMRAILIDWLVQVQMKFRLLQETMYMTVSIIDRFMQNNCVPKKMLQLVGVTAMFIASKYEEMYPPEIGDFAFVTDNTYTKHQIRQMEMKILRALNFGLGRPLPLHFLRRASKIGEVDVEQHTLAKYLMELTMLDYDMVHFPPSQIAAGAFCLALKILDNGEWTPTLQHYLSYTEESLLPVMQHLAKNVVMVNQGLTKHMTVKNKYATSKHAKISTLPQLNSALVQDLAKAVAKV
T4 sequence (P35968 20-1356, species assumed): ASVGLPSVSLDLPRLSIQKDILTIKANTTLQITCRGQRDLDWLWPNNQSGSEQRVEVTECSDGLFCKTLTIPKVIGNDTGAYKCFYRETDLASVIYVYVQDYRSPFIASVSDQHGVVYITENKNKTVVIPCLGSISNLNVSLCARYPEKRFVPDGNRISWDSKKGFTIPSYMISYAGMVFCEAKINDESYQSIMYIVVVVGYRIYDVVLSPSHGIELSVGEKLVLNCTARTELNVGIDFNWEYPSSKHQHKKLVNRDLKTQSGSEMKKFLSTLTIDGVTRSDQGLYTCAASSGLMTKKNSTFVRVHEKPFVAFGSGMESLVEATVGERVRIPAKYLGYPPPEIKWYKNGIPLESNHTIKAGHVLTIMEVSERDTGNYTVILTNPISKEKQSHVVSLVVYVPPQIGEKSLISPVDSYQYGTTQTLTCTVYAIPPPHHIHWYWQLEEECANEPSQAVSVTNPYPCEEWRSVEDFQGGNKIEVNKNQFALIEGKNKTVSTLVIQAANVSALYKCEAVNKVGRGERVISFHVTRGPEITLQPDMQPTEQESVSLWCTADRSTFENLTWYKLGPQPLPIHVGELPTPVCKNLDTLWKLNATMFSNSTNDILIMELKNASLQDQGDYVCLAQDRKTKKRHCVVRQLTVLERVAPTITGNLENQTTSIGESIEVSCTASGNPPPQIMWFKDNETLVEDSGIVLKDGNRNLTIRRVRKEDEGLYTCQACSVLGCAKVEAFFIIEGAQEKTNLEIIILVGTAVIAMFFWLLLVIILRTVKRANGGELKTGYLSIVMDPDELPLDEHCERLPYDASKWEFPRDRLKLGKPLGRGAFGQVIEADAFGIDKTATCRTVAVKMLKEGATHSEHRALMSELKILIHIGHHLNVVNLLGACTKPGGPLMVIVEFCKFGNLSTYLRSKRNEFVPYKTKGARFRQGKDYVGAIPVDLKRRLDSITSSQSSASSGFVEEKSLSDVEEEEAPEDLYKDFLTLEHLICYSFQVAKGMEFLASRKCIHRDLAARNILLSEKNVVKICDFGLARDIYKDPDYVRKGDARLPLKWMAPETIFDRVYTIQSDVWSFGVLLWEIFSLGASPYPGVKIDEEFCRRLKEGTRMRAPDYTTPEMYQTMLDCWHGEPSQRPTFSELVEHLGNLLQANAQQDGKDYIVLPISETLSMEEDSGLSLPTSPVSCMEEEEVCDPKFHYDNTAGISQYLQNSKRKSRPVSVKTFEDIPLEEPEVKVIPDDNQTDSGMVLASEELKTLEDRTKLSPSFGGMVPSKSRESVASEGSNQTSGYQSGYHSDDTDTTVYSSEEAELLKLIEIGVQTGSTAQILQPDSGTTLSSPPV

Structure (SMILES) | IC50 (Aurora-C) | IC50 (CDK2/CycE) | inhibition of CDK2 kinase (in words) (CDK2/CycE) | IC50 (CDK1/CycB) | IC50 (KDR (VEGFR2)) | IC50 (MCF7 breast tumour cells) | inhibition of Aurora C kinase (in words) (Aurora-C; summary of Tab. 1) | antiproliferative activity, MCF7 (in words) (MCF7 breast tumour cells)
C[C@@H](Nc1nc(Nc2ccc(S(C)=NS(=O)(=O)Cc3ccccc3)cc2)ncc1Br)C(C)(C)O (mixture of isomers) [Example 13, (RS)—N—(Benzylsulphonyl)-S-{4-[(5-bromo-4-{[(R)-2-hydroxy-1,2-dimethylpropyl]-amino}pyrimidin-2-yl)amino]phenyl}-S-methylsulphimide] | 660 nM | 28 nM |  | 140 nM | 15 nM | 110 nM |  | excellent antiproliferative activity
C[C@@H](Nc1nc(Nc2ccc(S(C)=NS(=O)(=O)C(F)(F)F)cc2)ncc1Br)C(C)(C)O (mixture of isomers) [Example 14, (RS)—S-{4-[(5-Bromo-4-{[(R)-2-hydroxy-1,2-dimethylpropyl]amino}pyrimidin-2-yl)amino]phenyl}-S-methyl-N-[(trifluoromethyl)sulphonyl]sulphimide] | 990 nM | 39 nM |  | 120 nM | 70 nM | 110 nM |  | excellent antiproliferative activity
C[C@@H](Nc1nc(Nc2ccc(S(C)=NS(=O)(=O)c3ccc(OC(F)(F)F)cc3)cc2)ncc1Br)C(C)(C)O (mixture of isomers) [Example 16, (RS)—S-{4-[(5-Bromo-4-{[(R)-2-hydroxy-1,2-dimethylpropyl]-amino}pyrimidin-2-yl)amino]phenyl}-S-methyl-N-{[4-(trifluoromethoxy)phenyl]-sulphonyl}sulphimide] | 1800 nM | 72 nM |  | 260 nM | 150 nM | 170 nM |  | excellent antiproliferative activity

The next compounds have a lower IC50 (Aurora-C) than those just listed; values first:

IC50 (Aurora-C) | IC50 (CDK2/CycE) | inhibition of CDK2 kinase (in words) (CDK2/CycE) | IC50 (CDK1/CycB) | IC50 (KDR (VEGFR2)) | IC50 (MCF7 breast tumour cells) | inhibition of Aurora C kinase (in words) (Aurora-C; summary of Tab. 1) | Structure (SMILES) | antiproliferative activity, MCF7 (in words) (MCF7 breast tumour cells)
570 nM | 21 nM |  | 110 nM | 37 nM | 110 nM |  | C[C@@H](Nc1nc(Nc2ccc(S(C)=NS(=O)(=O)c3ccccc3)cc2)ncc1Br)C(C)(C)O (mixture of isomers) [Example 15, (RS)—S-{4-[(5-Bromo-4-{[(R)-2-hydroxy-1,2-dimethylpropyl]amino}pyrimidin-2-yl)amino]phenyl}-S-methyl-N-(phenylsulphonyl)sulphimide] | excellent antiproliferative activity
480 nM | 39 nM |  | 160 nM | 38 nM | 200 nM |  | COc1ccc(S(=O)(=O)N=S(C)c2ccc(Nc3ncc(Br)c(N[C@H](C)C(C)(C)O)n3)cc2)cc1 (mixture of isomers) [Example 12, (RS)—S-{4-[(5-Bromo-4-{[(R)-2-hydroxy-1,2-dimethylpropyl]amino}pyrimidin-2-yl)amino]phenyl}-N-[(4-methoxyphenyl)sulphonyl]-S-methylsulphimide] | 
370 nM | 14 nM | active | 90 nM | 44 nM | < 100 nM | active | C[C@@H](Nc1nc(Nc2ccc(S(C)=NS(=O)(=O)c3cnccc3Cl)cc2)ncc1Br)C(C)(C)O (mixture of isomers) [Example 11, (RS)—S-{4-[(5-Bromo-4-{[(R)-2-hydroxy-1,2-dimethylpropyl]amino}pyrimidin-2-yl)amino]phenyl}-N-[(4-chloro-3-pyridyl)sulphonyl]-S-methylsulphimide] | 
360 nM | 28 nM | shows inhibition | 150 nM | 36 nM | < 100 nM |  | Cc1ccc(S(=O)(=O)N=S(C)c2ccc(Nc3ncc(Br)c(N[C@H](C)C(C)(C)O)n3)cc2)cc1 (mixture of isomers) [Example 9, (RS)—S-{4-[(5-Bromo-4-{[(R)-2-hydroxy-1,2-dimethylpropyl]amino}pyrimidin-2-yl)amino]phenyl}-S-methyl-N-(tolylsulphonyl)sulphimide] | excellent antiproliferative activity
